{"source": "EPA's ToxValDB 9.5 (doi:10.2903/j.efsa.2009.222r)", "key": {"[1]": {"test_system": "Aphidius rhopalosiphi", "assay": "LR50; higher = less toxic", "settings": "acute; duration: 48 hours; mortality"}, "[2]": {"test_system": "Rattus norvegicus"}, "[3]": {"test_system": "Pimephales promelas", "settings": "chronic/long-term"}, "[4]": {"test_system": "Tagia sp.", "settings": "acute; duration: 14 days; mortality"}, "[5]": {"test_system": "Daphnia magna", "settings": "chronic/long-term; duration: 21 days"}, "[6]": {"test_system": "Avena sativa", "settings": "acute; duration: 21 days; other"}, "[7]": {"test_system": "Apis mellifera", "settings": "acute; duration: 48 hours; dermal; mortality"}, "[8]": {"test_system": "Colinus virginianus"}, "[9]": {"test_system": "Lepomis macrochirus", "settings": "acute; duration: 96 hours; mortality"}}}
{"smiles": "CNC(=O)ON=C(C)SC", "note": "[Methomyl]", "values": [{"measurement": "LR50", "setting": "[1]", "result": 0.25, "unit": "g/ha"}, {"measurement": "NOAEL", "setting": "[2]; acute, clinical chemistry", "result": 0.25, "unit": "mg/kg-day"}, {"measurement": "LD50", "setting": "[2]; acute, oral, mortality", "result": 27.4, "unit": "mg/kg-day"}, {"measurement": "NOAEL", "setting": "[2]; reproduction developmental, body weight", "result": 4.6, "unit": "mg/kg-day"}, {"measurement": "NOEC", "setting": "[3]", "result": 0.073, "unit": "mg/L"}, {"measurement": "LC50", "setting": "[4]", "result": 19, "unit": "mg/kg"}, {"measurement": "NOEC", "setting": "[5]", "result": 0.0016, "unit": "mg/L"}, {"measurement": "LEL", "setting": "[6]", "result": 2250, "unit": "g/ha"}, {"measurement": "LD50", "setting": "[7]", "result": 0.16, "unit": "µg/piece"}, {"measurement": "LC50", "setting": "[8]; acute, oral, diet, mortality", "result": "> 519", "unit": "mg/kg-day"}, {"measurement": "LD50", "setting": "[8]; acute, oral, mortality", "result": 24.2, "unit": "mg/kg-day"}, {"measurement": "NOEC", "setting": "[8]; reproduction developmental", "result": 20.3, "unit": "mg/kg-day"}, {"measurement": "LC50", "setting": "[9]", "result": 0.63, "unit": "µg/mL"}]}
